Measurements reported in a melting point compilation (Tetko et al.; mined from patent text by program, amines drawn as free bases though some values may be those of a salt).
Residues, ends and D or L forms follow the SMILES beside them. *: point of attachment. Cbz = O=C(OCc1ccccc1)*

Row | SMILES | melting point
1 | Nc1ccn(C2OC(CO)C(O)C2O)c(=O)c1Cl (configuration not stated) | 197 to 199 °C
2 | O=C(O)c1ccccc1Oc1ccc2ccccc2c1 | 139 to 142 °C
3 | COC(=O)c1ccc(-c2cccc(C(=O)OC)c2)cc1 | 86 to 87 °C
4 | O=C(O)C[C@@H](c1cc(F)cc(F)c1)C(F)(F)F | 73 to 75 °C
5 | CCNC(=O)c1ccc(-n2nnc(C(=O)NC3CC3)c2COCc2ccccc2)c(OCc2ccccc2)c1 | 132 °C
6 | CCCCNC(=O)[C@@H](C[C@H](O)[C@H](CC1CCCCC1)NC(=O)[C@H](Cc1cscn1)NC(=O)[C@@H](CC(=O)N(C)Cc1ccccc1)Cc1ccccc1)C(C)C | 155 to 156 °C
7 | CC1Oc2ccc(Br)c(C=NO)c2O1 (configuration not stated) | 208 to 209 °C
8 | Cc1oncc1-c1cncc(OC2SCC(O)C(O)C2O)c1 (configuration not stated) | 209 °C
9 | CCOC(=O)CC[C@H](NC(=O)c1ccc(CCC2CNc3nc(NC(=O)C(C)(C)C)[nH]c(=O)c3C2)s1)C(=O)OCC (some centres not stated) | 169 to 170 °C
10 | O=c1[nH]c2cc(Cl)c(Cl)c([N+](=O)[O-])c2[nH]c1=O | 347 to 348 °C
11 | N#CCC(=O)Nc1ccccc1S | 198 to 201 °C
12 | COc1ccc(C(=O)CSCc2ccncc2)cc1 | 64 to 65 °C
13 | Cc1c(C)c(N2Cc3cc(Cl)c(Cl)cc3C2)c(C)c2c1OC(C)(C)C2c1ccc(F)cc1 (configuration not stated) | 233 to 238 °C
14 | CCOC(=O)c1cc(N=C=S)c(Cl)cc1Cl | 45 to 46 °C
15 | COc1ccnc(CCc2nc3cc(-c4ccc(C#N)cc4)cnc3[nH]2)c1 | 241 to 242 °C
16 | Cn1c(=O)ccc2ccc(N)cc21 | 268 to 269 °C
17 | Nc1cc(OCc2ccccc2)ccc1C=C(Br)Br | 93 to 94 °C
18 | CNC(=O)N1Cc2ccccc2CCC1=O | 140 to 141 °C
19 | CC(=O)N(C)c1c(I)c(NC(=O)CCCCCCCC(=O)O)c(I)c(C(=O)O)c1I | 205 to 208 °C
20 | COc1cccc(OC)c1Cl | 69 to 71 °C
21 | CCS(=O)(=O)Nc1ccc(C(O)CNCC2CCc3ccccc3C2=O)cc1 (configuration not stated) | 120 to 122 °C
22 | CS(=O)(=O)c1ccc(-n2nc(C(F)(F)F)cc2-c2nc3c(F)cccc3s2)cc1 | 208 to 209 °C
23 | COc1ccc(C(=O)C2=C(O)C(=O)N(c3nnc(C)s3)C2c2ccc(O)cc2)cc1 (configuration not stated) | 251 °C
24 | Cc1nc(N2CCN(Cc3ccc(F)cc3)C2=O)sc1C(=O)NCc1ncccn1 | 205 to 207 °C
25 | NCCC(=O)NCCCO | 140 to 142 °C
26 | COc1ccc(CNC(=O)C(C)=NNc2ccc(Cl)cc2)cc1 | 156 to 158 °C

Row | SMILES | melting point
27 | CSc1ncc(Oc2cccnc2)c(=O)[nH]1 | 205 to 208 °C
28 | O=C1CCc2c(-c3ccncc3)sc(-c3ccncc3)c21 | 168 to 170 °C
29 | CC(O)c1csc(S(N)(=O)=O)c1 (configuration not stated) | 164 to 167 °C
30 | Cc1cc([N+](=O)[O-])c(C)nc1O | 263 °C
31 | COc1ccc2c(c1C)OC(C(=O)O)C2 (configuration not stated) | 142 to 143 °C
32 | Cc1c([N+](=O)[O-])ccc2[nH]ccc12 | 179 to 180 °C
33 | COc1ccc(C[C@H](NC(=O)OCc2ccccc2)C(=O)CCl)cc1 | 107 °C
34 | NC(=O)c1c(NC(=O)C2CC2)sc2c(O)c(Br)ccc12 | 235 to 236 °C
35 | COC(C)Cn1c(C)nc2cnc3ccccc3c21 (configuration not stated) | 55 to 57 °C
36 | O=C1N(Cc2ccccn2)c2cccc(-c3cccnc3)c2C12COc1cc3c(cc12)CCO3 (configuration not stated) | > 200 °C
37 | CSc1ccc(-c2nc(SC)c(C(=O)O)c(=O)n2-c2ccc(C)cc2)cc1 | 173 to 175 °C
38 | CCOC(=O)Cn1c(=O)c(=O)[nH]c2cc(C(F)(F)F)c(-n3ccc(C=NO)c3)cc21 | > 250 °C
39 | CCOCCc1cc(OC)c(-c2ccc(C[C@H](NC(=O)c3c(F)cccc3F)C(=O)O)cc2)c(OC)c1 | 63 to 70 °C
40 | CC1(C)OC(=O)Nc2ccc(-c3ccc(C#N)s3)cc21 | 264 to 266 °C
41 | Cc1ccc(C2(CC(=O)O)CNC(=O)C2)cc1 (configuration not stated) | 184 to 186 °C
42 | Fc1cc(Cl)c2nc(Cl)sc2c1N=C=S | 80 to 81 °C
43 | CNC(=O)CC1CN=C(c2cc3cc(Oc4ccc(S(C)(=O)=O)nc4)ccc3[nH]2)S1 (configuration not stated) | 178 to 180 °C
44 | COc1cccc(C(O)CNCCc2ccc(OC)c(OC)c2Cl)c1 (configuration not stated) | 95.5 to 96.5 °C
45 | CCCCc1cc(C#N)sc1-c1ccc2c(c1)C(C)(C)OC(=S)N2 | 174 to 175 °C
46 | Nc1nc(Oc2ccccc2)nc2nc(-c3ccco3)nn12 | 250 to 252 °C
47 | C=C(C)[C@H]1CC[C@@](C)(O)[C@H](NC23CC4CC(CC(C4)C2)C3)C1 | 94 to 96 °C
48 | Cc1ccc(Cn2cc(CC(=O)O)c3cc(-c4ccc(OC(F)(F)F)cc4)ccc32)cc1 | 62 to 63 °C
49 | CCOC(=O)C(=O)Nc1ccc(Oc2ccc(NC(=O)C(=O)OCC)cc2)cc1 | 150 to 158 °C
50 | COc1ccc(OC)c(-c2cn(N=Cc3ccccc3)c(N)n2)c1 | 180 to 181 °C
51 | CCCCCCCc1ccc(-c2cnc(-c3ccc(OCCCCCC)c(F)c3)nc2)cc1 | 80.5 °C
52 | COc1cn(-c2ccc(-n3cc(F)c(F)c3)cc2OCC(F)(F)F)nc(-c2ccnn2-c2ccccc2)c1=O | 220 to 222 °C

Row | SMILES | melting point
53 | Cc1ccc(-c2ccc3c(c2)C=C(C(=O)Nc2ccc(Cc4ccccn4)cc2)CCO3)cc1 | 189 to 190 °C
54 | CC(C)(Oc1cccc(OCCCc2cn(-c3ccc(C(F)(F)F)cn3)nc2-c2ccccc2)c1)C(=O)O | 141 to 142 °C
55 | Cc1cc(N(C)S(=O)(=O)c2cccs2)c2[nH]c(C3=NCC(CNC(=O)OCc4ccccc4)S3)cc2c1 (configuration not stated) | 160 °C
56 | COC(=O)c1ccc2cc(CCCCCc3cc4ccc(C(=O)OC)cc4o3)oc2c1 | 83 to 85 °C
57 | N#Cc1c(N2CCN(C(=O)c3ccc4c(c3)OCO4)CC2)c2ccccc2n(Cc2ccc(F)cc2)c1=O | 140 to 160 °C
58 | Nc1ccc(C(=O)Nc2ccc(-c3ccc(C(=O)N4CCN5CCC4CC5)o3)cc2)cc1 | 151 °C
59 | C=CCNC(=O)N1CC(Oc2ccc(Br)cc2)C1 | 100 to 101 °C
60 | CCNC(=O)c1ccc(Cc2ccccc2)cn1 | 77 to 78 °C
61 | Cn1ncc2c1-c1c(Oc3ccc4c(c3)OCO4)sc(C#N)c1CC2 | 132 to 134 °C
62 | O=Cc1ccc(C(O)c2cccnc2)cc1 (configuration not stated) | 104 to 105 °C
63 | C=Cc1cnc2c(NC(=O)c3c(Cl)cccc3Cl)cccc2c1Cn1ccnc1 | 189 to 191 °C
64 | CC(c1cc2ncnc(Cl)c2[nH]1)c1oc2ccccc2c(=O)c1-c1cccc(F)c1 (configuration not stated) | 166 to 168 °C
65 | CN1C(=O)CN(c2ccc(OCc3ccccc3)cc2)NC1=O | 224 to 227 °C
66 | CCOC(=O)Cc1csc(NC(=O)c2sc3ccc(OC)cc3c2OC(C)C)n1 | 91 to 92 °C
67 | CC(C)Cc1nc2c(C(F)(F)F)cccc2c(O)c1C(=O)O | 200 °C
68 | CSc1nc(NC2CCCCC2)c2nsnc2n1 | 134 to 136 °C
69 | COc1ccc2[nH]cc(C(C)N3CCCCC3=O)c2c1 (configuration not stated) | 150 °C
70 | Cc1cccc(CCC(O)(P(=O)(O)O)P(=O)(O)O)c1N | 133 °C
71 | CCOc1ccc(C=CC(=O)N2CCc3c([nH]c4ccccc34)C2c2ccc3c(c2)OCO3)cc1 (configuration not stated) | 199 to 200 °C
72 | O=C1CCc2c1cccc2C(=O)c1ccc(Cl)cc1 | 146 °C
73 | O=C(N=C1SCCN1Cc1cnc(Cl)s1)c1ccccc1 | 120 °C
74 | CC#CCOc1ccc(S(=O)(=O)N(C)C(C(=O)O)c2ccc(Cl)cc2)cc1 (configuration not stated) | 170 to 172 °C
75 | Cc1nc(-c2ncn3c2[C@@H]2CCCN2C(=O)c2c(Cl)cccc2-3)n(C)n1 | 221 to 222 °C
76 | Cc1cc(CCCCCCCOc2ccc(C3=N[C@@H](C(C)C)CO3)cc2)on1 | 122 to 123 °C
77 | COc1ccc(C2CCCCC2)cc1-c1csc(NC(=O)N2CCN(C[C@@H]3CCCN(CC#N)C3)CC2)n1 | 106 °C
78 | COc1ncc(Cl)c(C)c1C(=O)O | 127 to 129 °C

Row | SMILES | melting point
79 | Cc1cc(Cl)ncc1C(=O)O | 170 to 172 °C
80 | Clc1ccc(Oc2ccccc2Oc2ccc(Cl)cn2)nc1 | 82 to 84 °C
81 | Cc1cc(Oc2cccc(C(F)(F)F)c2)nn1C(=O)Nc1ccc(Cl)c(Cl)c1 | 97 to 99 °C
82 | N=C(N)NCCCC(NC(=O)C1CCCN1C(=O)OCc1ccccc1)C(=O)O (stereo not drawn) (Cbz-Pro-Arg-OH; configuration not given here) | 137 to 140 °C
83 | CS(=O)(=O)c1ccc(-c2cn(-c3ccccc3)nc2C(=O)O)cc1 | 207 to 208 °C
84 | Nc1nc(-c2cc(Cl)ccc2Cl)nc(N2CCS(=O)CC2)n1 | 267 to 269 °C
85 | Cc1ccccc1C(O)c1cncnc1C(C)(C)C (configuration not stated) | 125 to 127 °C
86 | COC(=O)c1cccc2cc(-c3ccccc3)oc12 | 45 to 47 °C
87 | COc1ccc2c3c([nH]c2c1[N+](=O)[O-])C(O)CC3 (configuration not stated) | 192 °C
88 | NNCCCCS(=O)(=O)O | 152 to 154 °C
89 | COCCOc1ccc(C=O)c(Oc2ncc(C(F)(F)F)cc2Cl)c1 | 80.5 to 81 °C
90 | O=C(Nc1ccc(CN2CCOCC2)c2ccccc12)c1cc(F)cc(N2CCOCC2)c1 | 192 to 193 °C
91 | CC(C)(C)OC(=O)N(Cc1ncccc1C(N)=NO)C(=O)OC(C)(C)C | 178 to 180 °C
92 | CCCCCCCCCCCCn1nnc(NC2CCCCC2)n1 | 51 to 53 °C
93 | Nc1cc2[nH]c(=O)ccc2cn1 | > 275 °C
94 | COC(=O)c1ccc(Cc2cccc3ccc(C(N)=O)cc23)c(OC)c1 | 215 to 216 °C
95 | CC(C)(C)NC(=O)[C@@H]1C[C@H](Cl)CN1C(=O)[C@@H](O)[C@@H](N)Cc1ccccc1 | 126 to 130 °C
96 | C[C@@H]1CCCN1CCCN1CCN(CCN2CCCCC2)C1=C(C#N)C#N | 70 to 71 °C
97 | O=C1c2ccccc2C(=O)N1Cc1noc(CCl)n1 | 96.5 to 98 °C
98 | O=C1CCC(N2Cc3c(OCc4ccc(CN5CCC(O)(c6ccccc6)CC5)cc4)cccc3C2=O)C(=O)N1 (configuration not stated) | 140 to 142 °C
99 | COc1ccc(-c2cc(COS(C)(=O)=O)c(=O)n(Cc3ccc(F)cc3)n2)cc1F | 125 to 133 °C
100 | O=C1NC(=S)NC1=Cc1cc(O)c(O)c(Cl)c1 | 303 to 304 °C
101 | CCOC(=O)C(=CNc1ccc(CO)cc1I)C(=O)OCC | 152 to 154 °C
102 | CCCCOCCOc1ccc(-c2ccc3c(c2)C=C(C(=O)Nc2ccc(O)cc2)CCN3CC(C)C)cc1 | 155 to 157 °C
